# Tests used:
# BRD4 (BD1) = molecular target: T1, BRD4 (BD1) (Homo sapiens, UniProt O60885); test: BRD4 (BD1) bromodomain binding, HTRF; details: 2 h incubation at r.t.
# T1 construct: Each member comprises two tandem bromodomains (BD1 and BD2) for recognizing the acetylated lysine residues
# BRD4 (BD2) = molecular target: T2, BRD4 (BD2) (Homo sapiens, UniProt O60885); test: BRD4 (BD2) bromodomain binding, HTRF; details: 2 h incubation at r.t.
# T2 construct: Each member comprises two tandem bromodomains (BD1 and BD2) for recognizing the acetylated lysine residues
# MV-4-11 cells = test: Inhibitory effect on MV-4-11 cells (CellTiter-Glo); type: cell-based; details: Homo sapiens, MV4-11; 72 hours, CellTiter-Glo; read-out: MV-4-11
# Method: The 1st Day: Seed the Cells on the Plate
# 1. The cells were verified that they were in good conditions by observation under microscope;
# 2. The cells were transferred to a 15 mL centrifuge tube, after centrifuged at 1000 rpm for 5 min, the supernatant was discarded;
# 3. The complete medium (IMDM+10% FBS) was added, then blown and patted into single cell suspension, counted by Vi-cell cytometer, the cell suspension was adjusted to desired cell density by the complete medium.
# 4. The cells were inoculated into a 96 well plate, the cell number was 15000/well at 100 μL per well, 100 μL complete medium was added into the black control.
# 5. 37° C., 5% CO2 culture overnight.
# The 2nd Day: Addition of the Drugs
# 1. 1000× Compound Plate Preparation
# 1.1. The test compound was prepared into 10 mM working solution by using DMSO. Then the STS was prepared into 2 mM working solution by using DMSO.
# 1.2. In the round bottom 96 wells plate, the column 2 of row A to H was added into 60 μL 10 mM test compound (or STS) working solution, columns 3-11 were added into 40 μL DMSO, 20 μL drug solution was pipetted from the column 2 to the column 3, blown and patted for a homogeneous mixture; then 20 μL solution was pipetted from the column 3 to the column 4, blown and patted for a homogeneous mixture, sequently, the drug was diluted by 3 times, 10 concentrations in total. The columns 1 and 12 were supplemented with 40 μL of DMSO.
# 2. Intermediate plate areparation
# A sterile V-bottom 96 deep well plate was used and in each well, 495 μL FBS-free PRMI 1640 medium was added, then 5 μL of the diluted compound (or DMSO) in the 1000× compound plate was pipetted into corresponding position of the V-bottom 96 well plate, blown and patted evenly.
# 3.1. The cell plate was taken out from the incubator and was observed under microscope. The diluted compound or DMSO in the intermediate plate was added into the cell plate, 11 μL each well.
# 3.2. The cell was continued to be cultured at 37° C., 5% CO2 for 72 hours.
# The 5th Day: CellTiter-Glo Detection of the Cell Activity
# 1. The CellTiter-Glo buffer and the reaction substrate were taken out from the refrigerator, after balanced to r.t., the buffer was poured into a brown bottle containing the substrate, the bottle was upside down to have the substrate powder sufficientaly dissolved.
# 2. The cell was observed under microscope; the cell plate was balanced to r.t.
# 3. The prepared CellTiter-Glo was added into the 96 well plate, at 100 μL/well.
# 4. The cell plate was placed on a shaker for 10 min, followed by standing at r.t. for 10 min.
# 5. A white seal film was attached to the bottom of the well plate, and the chemiluminescence signal of each well was detected by the Enspire microplate detector.
# 6. XLfit was used for data processing. Inhibition rate %=(d−c)/(d−b)×100, while d is the signal value of the DMSO treated group, c is the signal value of the compound treated group, b is signal value of the blank control that only containing medium and DMSO without cells. The data was fitted using the f(x)205[fit=(A+((B−A)/(1+((C/x)^∧D))))] equation in the XLfit software.
Compound,IC50 (BRD4 (BD1)),IC50 (BRD4 (BD2)),IC50 (MV-4-11 cells)
"Cn1cc2c(cc1=O)CN=C(c1ccc(Cl)cc1)c1ccccc1-2 [Compound 4010, 7-(4-chlorophenyl)-2-methyl-2H-benzo[c]pyrido[3,4-e]azepin-3(5H)-ketone]",30 nM,43 nM,637 nM
"CCS(=O)(=O)Cc1ccc2c(c1)-c1cn(C)c(=O)cc1CN=C2c1ccc(Cl)cc1F [Compound 4013, 7-(4-chloro-2-fluorophenyl)-10-((ethylsulfone)methyl)-2-methyl-2,5-dihydro-3H-benzo[c]pyrido[3,4-e]azepin-3-ketone]",7 nM,2 nM,75 nM
"Cn1cc2c(cc1=O)[C@H](CC(N)=O)N=C(c1ccc(Cl)cc1)c1ncccc1-2 [Compound 4029, (S)-2-(7-(4-chlorophenyl)-2-methyl-3-oxo-3,5-dihydro-2H-dipyrido[2,3-c:3′,4′-e]azepin-5-yl)acetamide]",6 nM,2 nM,69 nM
"C[C@@H]1N=C(c2ccc(F)cc2)c2cc(F)c(NS(C)(=O)=O)cc2-c2cn(C)c(=O)cc21 [Compound 4074, (S)—N-(9-fluoro-7-(4-flurophenyl)-2,5-dimethyl-3-oxo-3,5-dihydro-2H-benzo[c]pyrido[3,4-e]azepin-10-yl) methylsulfamide]",1 nM,1 nM,2 nM
"CCS(=O)(=O)Cc1ccc2c(c1)-c1cn(C)c(=O)cc1[C@H](C1CC1)N=C2c1ccc(F)cc1 [Compound 4042, (S)-5-cyclopropyl-10-((ethylsulfonyl)methyl)-7-(4-flurophenyl)-2-methyl-2,5-dihydro-3H-benzo[c]pyrido[3,4-e]azepin-3-ketone]",1 nM,1 nM,7 nM
"CCS(=O)(=O)Nc1ccc2c(c1)-c1cn(C)c(=O)cc1CN=C2c1ccc(Cl)cc1 [Compound 4024, N-(7-(4-chlorophenyl)-2-methyl-3-oxo-3,5-dihydro-2H-benzo[c]pyrido[3,4-e]azepin-3-yl)ethanesulfonamide]",2 nM,1 nM,9 nM
"CCS(=O)(=O)Cc1cc2c(cc1OC)C(c1ccc(F)cc1)=N[C@@H](C)c1cc(=O)n(C)cc1-2 [Compound 4057, (S)-10-((ethylsulfonyl)methyl)-7-(4-flurophenyl)-9-methoxyl-2,5-dimethyl-2,5-dihydro-3H-benzo[c]pyrido[3,4-e]azepin-3-ketone]",2 nM,1 nM,4 nM
"CCS(=O)(=O)Cc1cc2c(cn1)C(c1ccc(Cl)cc1)=NCc1cc(=O)n(C)cc1-2 [Compound 4027, 7-(4-chlorophenyl)-10-((ethylsulfonyl)methyl)-2-methyl-2,5-dihydro-3H-dipyrido[3,4-c:3′,4′-e]azepin-3-ketone]",12 nM,6 nM,128 nM
"CCS(=O)(=O)Cc1ccc2c(c1)-c1cn(C)c(=O)cc1[C@H](C(F)(F)F)N=C2c1ccc(F)cc1 [Compound 4040, (R)-10-((ethylsulfonyl)methyl)-7-(4-flurophenyl)-2-methyl-5-(trifluoromethyl)-2,5-dihydro-3H-benzo[c]pyrido[3,4-e]azepin-3-ketone]",5 nM,2 nM,43 nM
"CCNC(=O)Nc1ccc2c(c1)-c1cn(C)c(=O)cc1[C@H](C)N=C2c1ccc(F)cc1 [Compound 4051, (S)-1-ethyl-3-(7-(4-flurophenyl)-2,5-dimethyl-3-oxo-3,5-dihydro-2H-benzo[c]pyrido[3,4-e]azepin-10-yl)urea]",5 nM,3 nM,42 nM
"CNS(=O)(=O)C(C)c1ccc2c(c1)-c1cn(C)c(=O)cc1[C@H](C)N=C2c1ccc(F)cc1 (stereo partly drawn) [Compound 4091, 1-((S)-7-(4-flurophenyl)-2,5-dimethyl-3-oxo-3,5-dihydro-2H-benzo[c]pyrido[3,4-e]azepin-10-yl)-N-methylethane-1-sulfamide]",1 nM,0.7 nM,3 nM
"CCS(=O)(=O)Cc1ccc2c(c1)-c1cn(C)c(=O)cc1[C@H](C)N=C2c1ccc(F)cc1OC [Compound 4087, (S)-10-((ethylsulfonyl)methyl)-7-(4-fluoro-2-methoxylphenyl)-2,5-dimethyl-2,5-dihydro-3H-benzo[c]pyrido[3,4-e]azepin-3-ketone]",4 nM,1 nM,26 nM
"CC[C@@H]1N=C(c2ccc(F)cc2)c2cc(F)c(NS(=O)(=O)CC)cc2-c2cn(C)c(=O)cc21 [Compound 4066, (S)—N-(5-ethyl-9-fluoro-7-(4-flurophenyl)-2-methyl-3-oxo-3,5-dihydro-2H-benzo[c]pyrido[3,4-e]azepin-10-yl)ethylsulfonamide]",1 nM,1 nM,0.4 nM
"CCS(=O)(=O)Cc1cc2c(cc1OC)C(c1ccc(F)cc1)=NCc1cc(=O)n(C)cc1-2 [Compound 4094, 10-((Ethylsulfonyl)methyl)-7-(4-flurophenyl)-9-methoxyl-2-methyl-2,5-dihydro-3H-benzo[c]pyrido[3,4-e]azepin-3-ketone]",3 nM,2 nM,49 nM
"CCS(=O)(=O)Nc1cc2c(cc1F)C(c1ccc(F)cc1)=N[C@@H](C)c1cc(=O)n(C)cc1-2 [Compound 4055, (S)—N-(9-fluoro-7-(4-flurophenyl)-2,5-dimethyl-3-oxo-3,5-dihydro-2H-benzo[c]pyrido[3,4-e]azepin-10-yl)ethylsulfonamide]",1 nM,1 nM,1 nM
"CCS(=O)(=O)Cc1cc2c(cc1F)C(c1ccc(F)cc1)=N[C@@H](C)c1cc(=O)n(C)cc1-2 [Compound 4085, (S)-10-((ethylsulfonyl)methyl)-9-fluoro-7-(4-flurophenyl)-2,5-dimethyl-2,5-dihydro-3H-benzo[c]pyrido[3,4-e]azepin-3-ketone]",2 nM,1 nM,4 nM
"CCS(=O)(=O)Cc1ccc2c(c1)-c1cn(C)c(=O)cc1N(C)N=C2c1ccc(F)cc1Cl [Compound 4093, 7-(2-chloro-4-flurophenyl)-10-((ethylsulfonyl)methyl)-2,5-dimethyl-2,5-dihydro-3H-benzo[e]pyrido[4,3-c][1,2]diazepin-3-ketone]",5 nM,0.7 nM,17 nM
"CNS(=O)(=O)C(C)(C)c1ccc2c(c1)-c1cn(C)c(=O)cc1[C@H](C)N=C2c1ccc(F)cc1 [Compound 4090, (S)-2-(7-(4-flurophenyl)-2,5-dimethyl-3-oxo-3,5-dihydro-2H-benzo[c]pyrido[3,4-e]azepin-10-yl)-N-methylpropane-2-sulfamide]",1 nM,1 nM,3 nM
"CCS(=O)(=O)Nc1cc2c(cc1F)C(c1ccc(F)cc1)=NN(C)c1cc(=O)n(C)cc1-2 [Compound 4092, N-(9-fluoro-7-(4-flurophenyl)-2,5-dimethyl-3-oxo-3,5-dihydro-2H-benzo[e]pyrido[4,3-c][1,2]diazepin-10-yl)ethylsulfonamide]",1 nM,0.6 nM,3 nM
"Cn1cc2c(cc1=O)[C@H](CC(N)=O)N=C(c1ccc(F)cc1)c1ccc(CS(C)(=O)=O)cc1-2 [Compound 4014, (S)-2-(7-(4-fluorophenyl)-2-methyl-10-(methylsulfonylmethyl)-3-oxo-3,5-dihydro-2H-benzo[c]pyrido[3,4-e]azepin-5-yl)acetamide]",2 nM,1 nM,292 nM
"CCS(=O)(=O)Nc1cc2c(cc1F)C(c1ccc(F)cc1)=N[C@@H](C1CC1)c1cc(=O)n(C)cc1-2 [Compound 4084, (S)—N-(5-cyclopropyl-9-fluoro-7-(4-flurophenyl)-2-methyl-3-oxo-3,5-dihydro-2H-benzo[c]pyrido[3,4-e]azepin-10-yl)ethylsulfonamide]",2 nM,1 nM,0.5 nM
"CCNC(=O)C[C@@H]1N=C(c2ccc(F)cc2)c2ccc(CS(C)(=O)=O)cc2-c2cn(C)c(=O)cc21 [Compound 4015, (S)—N-ethyl-2-(7-(4-fluorophenyl)-2-methyl-10-(methylsulfonemethyl)-3-oxo-3,5-dihydro-2H-benzo[c]pyrido[3,4-e]azepin-5-yl)acetamide]",2 nM,1 nM,69 nM
"CCS(=O)(=O)Cc1ccc2c(c1)-c1cn(C)c(=O)cc1[C@H](CC(N)=O)N=C2c1ccc(F)cc1 [Compound 4076, (S)-2-(10-((ethylsulfonyl)methyl)-7-(4-flurophenyl)-2-methyl-3-oxo-3,5-dihydro-2H-benzo[c]pyrido[3,4-e]azepin-5-yl)acetamide]",2 nM,1 nM,114 nM
"CCS(=O)(=O)Nc1cc2c(cc1F)C(c1ccc(Cl)cc1)=N[C@@H](C)c1cc(=O)n(C)cc1-2 [Compound 4062, (S)—N-(7-(4-chlorophenyl)-9-fluoro-2,5-dimethyl-3-oxo-3,5-dihydro-2H-benzo[c]pyrido[3,4-e]azepin-10-yl)ethylsulfonamide]",1 nM,1 nM,1 nM
"CCS(=O)(=O)Cc1ccc2c(c1)-c1cn(C)c(=O)cc1C(COC)N=C2c1ccc(F)cc1 (stereo not drawn) [Compound 4082, 10-((ethylsulfonyl)methyl)-7-(4-flurophenyl)-5-(methoxylmethyl)-2-methyl-2,5-dihydro-3H-benzo[c]pyrido[3,4-e]azepin-3-ketone]",2 nM,1 nM,11 nM
"CC(C)S(=O)(=O)Cc1ccc2c(c1)-c1cn(C)c(=O)cc1[C@H](C)N=C2c1ccc(F)cc1 [Compound 4044, (S)-10-((isopropylsulfone)methyl)-7-(4-flurophenyl)-2,5-dimethyl-2,5-dihydro-3H-benzo[c]pyrido[3,4-e]azepin 3-ketone]",1 nM,1 nM,7 nM

# — patent US20190284192A1, “NITROGENOUS MACROCYCLIC COMPOUND, PREPARATION METHOD THEREFOR, PHARMACEUTICAL COMPOSITION AND APPLICATION THEREOF” (LUOXIN PHARMACEUTICAL (SHANGHAI) CO., LTD., priority 2016, published 2019)
